This is an account of results in EP0006772A1, “Thieno and furopyridone derivatives, process for their preparation and medicinal preparations containing them” (OMNIUM FINANCIER AQUITAINE POUR L'HYGIENE ET LA SANTE - …, priority 1978, dated 1980).

Assay [1] has as its system agrégation plaquettaire à l'A.D.P. Kind of assay: ADP-induced platelet aggregation in plasma of orally treated rats (ex vivo). The arrangement: species or system rats de souche Wistar. As to conditions: Rattus norvegicus, 100 mg/kg oral, 3 hours after treatment, versus control, 10 µM A.D.P., read-out: Pourcentage d'inhibition A.D.P. The method, then: (§1) Chez des rats de souche Wistar, on effectue un prélèvement sanguin dans la veine jugulaire. A partir de ce sang citraté et après centrifugation, on reconstitue un plasma contenant 600 000 ± 20 000 plaquettes par mm^3, qui servira dans toutes les mesures d'agrégation.
(§2) On place 0,4 ml de plasma dans un tube siliconé pourvu d'une barre aimantée elle-même siliconée. Le tube est introduit dans un agrégomètre couplé à un appareil permettant d'enregistrer les variations de densité optique. Lorsque la transmission de la lumière a atteint une valeur stable, on introduit dans le tube 0,5 ml d'une solution contenant 10 µM d'A.D.P. (Adénosine-Di Phosphate).
(§3) L'agrégation des plaquettes provoque alors une augmentation de la transmission lumineuse suivie d'une diminution consécutive à la phase de désagrégation.
(§4) La variation maximale de densité optique ainsi déterminée caractérise l'intensité de l'agrégation.
(§5) Différents lots de 20 rats sont uiilisés, chaque lot recevant un dérivé à tester par la vcie orale, à la dose de 100 mg/kg de poids corporel. Les résultats obtenus au cours de ces 2 essais sont rapportés dans le Tableau I suivant qui indique le pourcentage d'inhibition de l'agrégation plaquettaire obtenu, par rapport au témoin, 3 heures après le traitement par le médicament de l'invention, dans le test de l'A.D.P. et au collagène.

The subject of assay [2] is agrégation plaquettaire au collagène. The assay is described as follows: Collagen-induced platelet aggregation in plasma of orally treated rats (ex vivo). The arrangement: species or system rats de souche Wistar. As to conditions: Rattus norvegicus, 100 mg/kg oral, 3 hours after treatment, versus control, collagen (bovine tendon extract), read-out: Pourcentage d'inhibition Collagène. The method, then:
as §1, §2, §3, §4
La solution d'A.D.P. est remplacée par une solution de collagène (extrait de tendons bovins).
as §5

In assay [3] the test system is oedème localisé provoqué par la carragénine. Kind of assay: Carrageenan-induced localised paw oedema. Particulars: rat, 100 mg/kg oral (1 h before, at injection, 1 h and 2.5 h after). The assay is classed as in vivo. The procedure:
Une solution de carragénine (0,1 ml) à 1 % est injectée dans les fléchisseurs métatarsiens de la patte postérieure droite du rat au temps O. Les animaux du lot traité reçoivent en outre, par la voie orale, 100 mg par kg du dérivé à tester respectivement 1 heure avant, en même temps que l'injection de l'agent phlogogène, puis 1 heure et 2 heures et demi après. Les mesures qui sont effectuées à l'aide du micromètre de ROCH aux temps 0, 1 heure, 2 heures, 3 heures et 5 heures après l'administration de la carragénine permettent de déterminer, en fonction du temps, le pourcentage d'activité anti-inflammatoire par comparaison avec le lot témoin.
For orientation: Carrageenan injected into the paw causes an acute inflammation.

Assay [4] concerns oedème généralisé à l'ovalbumine. The assay is described as follows: Ovalbumin-induced generalised oedema. It is filed as in vivo. As to conditions: po, rat, 100 mg/kg per os 1 h before and together with ovalbumin. The procedure: Une injection intrapéritonéale simultanée de 1 ml d'ovalbumine et de 0,5 ml d'une solution aqueuse de bleu Evans à 1 % est effectuée sur le rat. D'autre part, on administre per os aux animaux du lot traité 100 mg/kg du dérivé à tester 1 heure avant et en même temps que l'ovalbumine. L'intensité du phénomène ainsi provoqué est notée par un chiffre allant de 1 à 5 suivant la progression du syndrome inflammatoire. On détermine ainsi la moyenne de l'intensité oedémateuse et le pourcentage de diminution de la réaction oedémateuse par rapport au témoin, en fonction du temps.
Les pourcentages d'activité anti-inflammatoire obtenus à la 2ème heure et 3ème heure après l'injection d'ovalbumine sont consignés dans le Tableau III suivant.

[5] abbreviates: 1 h after carrageenan, read-out: pourcentage d'activité anti-inflammatoire Ière heure.
Setting [6] is: 2 h after carrageenan, read-out: pourcentage d'activité anti-inflammatoire 2ème heure.
Setting [7] is: 3 h after carrageenan, read-out: pourcentage d'activité anti-inflammatoire 3ème heure.
[8] abbreviates: 5 h after carrageenan, read-out: pourcentage d'activité anti-inflammatoire 5ème heure.
Where [9] appears, read: 2 h after ovalbumin injection, read-out: Pourcentage d'activité anti-inflammatoire 2ème heure.
Setting [10] is: 3 h after ovalbumin injection, read-out: Pourcentage d'activité anti-inflammatoire 3ème heure.

Structures are written as SMILES. Where two headings read alike, the source gives them in different places.

Broadly, the inhibition is the percentage by which the read-out fell short of the control.

With `O=c1[nH]c(-c2cccnc2)cc2sccc12` [dérivé 14, (Pyridyl-3)-6 thiéno(3,2-c)pyridone-4], the inhibition at 100 mg/kg in assay [1] came to 60.8%; in assay [2], 91.2%. Also, the inhibition in vivo at 100 mg/kg in assay [3] (setting [5]) is 38%; in assay [3] (setting [6]), 41%; in assay [3] (setting [7]) it was 47%; in assay [3] (setting [8]), 50%; in assay [4] (setting [9]) it was 48%; in assay [4] (setting [10]) it was 54%.

For `O=c1[nH]c(-c2ccccc2)cc2ccsc12` [dérivé 15, Phényl-5 thiéno(2,3-c)pyridone-7], the inhibition at 100 mg/kg in assay [1] was determined as 62.5%; in assay [2] it was 90.8%. Also, the inhibition in vivo at 100 mg/kg in assay [3] (setting [5]) turned out to be 39%; in assay [3] (setting [6]) it was 43%; in assay [3] (setting [7]), 48%; in assay [3] (setting [8]), 51%; in assay [4] (setting [9]), 47%; in assay [4] (setting [10]), 53%.

On to `O=c1[nH]c(-c2ccccc2Cl)cc2ccsc12` [dérivé 16, o-chlorophényl-5 thiéno(2,3-c)pyridone-7], for which the inhibition at 100 mg/kg in assay [1] stood at 60.1%; in assay [2], 90.2%. In addition, the inhibition in vivo at 100 mg/kg in assay [3] (setting [5]) was found to be 37%; in assay [3] (setting [6]), 41%; in assay [3] (setting [7]), 47%; in assay [3] (setting [8]), 50%; in assay [4] (setting [9]), 46%; in assay [4] (setting [10]), 54%.

`O=c1[nH]c(-c2ccccc2)cc2occc12` [dérivé 17, Phényl-6 furo(3,2-c)pyridone-4]: the inhibition at 100 mg/kg came out at 59.8% in assay [1] and 90.4% in assay [2]. Besides, the inhibition in vivo at 100 mg/kg in assay [3] (setting [5]) is 41%; in assay [3] (setting [6]) it was 44%; in assay [3] (setting [7]) it was 49%; in assay [3] (setting [8]) it was 51%; in assay [4] (setting [9]), 45%; in assay [4] (setting [10]) it was 51%.
